Data reported in patent US20200031848A1, “AR-V7 INHIBITORS” (Hoffmann-La Roche Inc., priority 2016, published 2020).

Legend:
[1] = in vitro; settings: human, microsomes, pH 7.4
Method: Microsomal incubations were carried out in 96-well plates in 5 aliquots of 40 μL each (one for each time point). […] Control incubations were performed replacing the NADPH-cofactor system with PBS. […] Incubations were performed in duplicates. Five time points over 40 minutes had been analyzed. The reactions were stopped by adding 12 volumes of 90% acetonitrile-water to incubation aliquots, followed by protein sedimentation by centrifuging at 5500 rpm for 5 minutes. Supernatants were analyzed using the HPLC system coupled with tandem mass spectrometer. The elimination constant (kel), half-life (t1/2) and intrinsic clearance (Clint) were determined in plot of […] versus time, using linear regression analysis: […]

[2] = test system: PSA levels secreted into the media; experiment: Prostate-specific antigen (PSA) assay; assay type: cell-based; settings: Homo sapiens, 72 h; in parallel to the eGFP assay, same plates, 3 days
Method: (§1) 1. Cell Culture: LNCaP and PC3 human prostate cancer cells were obtained from American Type Culture Collection (ATCC, Manassas, Va.) and grown in RPMI 1640 medium supplemented with 5% fetal bovine serum (FBS) (Invitrogen). The LNCaP eGFP cell line was stably transfected with an androgen-responsive probasin-derived promoter fused to an eGFP reporter (LN-ARR2PB-eGFP) using a lentiviral approach, and were grown in phenol-red-free RPMI 1640 supplemented with 5% CSS. In-house developed MDV3100-resistant LNCaP cells were cultured in RPMI 1640 supplemented with 5% FBS and 10 μM MDV3100. All cells were maintained at 37° C. in 5% CO2.
3. Prostate-specific antigen (PSA) assay: The evaluation of PSA levels secreted into the media was performed in parallel to the eGFP assay using the same plates. After cells were incubated for 3 days, 150 μl of the media was taken from each well, and added to 150 μl of PBS. PSA levels were then evaluated using Cobas e 411 analyzer instrument (Roche Diagnostics) according to the manufacturer's instructions.

[3] = molecular target: T1, AR transcriptional activity (Homo sapiens, UniProt P10275, T878A); experiment: eGFP cellular AR transcription assay; assay type: cell-based; settings: LNCaP eGFP cell line
T1 construct: The LNCaP eGFP cell line was stably transfected with an androgen-responsive probasin-derived promoter fused to an eGFP reporter; endogenous in cells; host or cells: LNCaP eGFP (LN-ARR2PB-eGFP) human prostate cancer cells
T1 sequence (P10275 1-920 T878A): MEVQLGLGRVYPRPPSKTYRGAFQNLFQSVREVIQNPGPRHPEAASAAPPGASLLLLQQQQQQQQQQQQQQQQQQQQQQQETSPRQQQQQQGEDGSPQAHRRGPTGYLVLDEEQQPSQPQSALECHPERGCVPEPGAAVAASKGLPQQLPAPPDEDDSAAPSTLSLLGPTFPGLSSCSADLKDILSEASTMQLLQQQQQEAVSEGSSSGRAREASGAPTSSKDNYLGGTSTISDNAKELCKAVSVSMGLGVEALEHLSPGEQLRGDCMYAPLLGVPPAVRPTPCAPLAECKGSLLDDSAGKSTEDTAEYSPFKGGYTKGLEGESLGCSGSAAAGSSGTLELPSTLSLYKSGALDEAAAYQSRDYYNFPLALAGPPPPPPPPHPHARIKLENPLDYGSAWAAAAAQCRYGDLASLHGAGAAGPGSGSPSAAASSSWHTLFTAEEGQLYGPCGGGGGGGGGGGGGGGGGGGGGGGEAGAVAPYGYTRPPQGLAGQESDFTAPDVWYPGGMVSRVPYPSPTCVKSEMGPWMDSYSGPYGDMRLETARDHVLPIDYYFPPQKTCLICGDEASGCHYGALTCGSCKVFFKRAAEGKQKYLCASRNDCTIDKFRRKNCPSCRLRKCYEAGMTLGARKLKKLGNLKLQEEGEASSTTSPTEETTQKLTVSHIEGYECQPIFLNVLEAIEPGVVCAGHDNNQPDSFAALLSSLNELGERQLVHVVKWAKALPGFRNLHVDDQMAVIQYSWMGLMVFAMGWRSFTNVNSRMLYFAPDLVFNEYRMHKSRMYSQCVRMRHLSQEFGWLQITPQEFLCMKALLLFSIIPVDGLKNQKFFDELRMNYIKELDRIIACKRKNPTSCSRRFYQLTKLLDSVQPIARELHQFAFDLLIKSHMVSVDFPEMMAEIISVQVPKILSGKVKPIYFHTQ
Description: The DNA-binding domain is an attractive target for inhibition of AR dimerization and/or DNA binding. In silico computational drug discovery methods were used to conduct a virtual screen of >3 million purchasable lead-like compounds from the ZINC database (Irwin, J. et al.^11) to identify potential DBD binders. The in silico methods included large-scale docking, in-site rescoring and consensus voting procedures. It will be understood by a person of skill that COOH and NR2 may include the corresponding ions, for example carboxylate ions and ammonium ions, respectively. Alternatively, where the ions are shown, a person of skill in the art will appreciate that the counter ion may also be present. Furthermore, it will be appreciated by a person of skill that other moieties may include the corresponding ions, and where the ions are shown, a person of skill in the art will appreciate that the counter ion may also be present. […] Where the % inhibition, eGFP IC50 or the PSA IC50 has no value given, this may be because no measurement was taken or the value was not calculated, in the case of the % inhibition. In vitro identification of AR inhibitors targeting AR DBD The selected compounds were assessed with a non-destructive eGFP assay that quantifies levels of AR transcriptional activity, were identified (table below).
as §1
2. eGFP cellular AR transcription assay: The AR transcriptional activity was assayed as previously described (Tavassoli, P., et al.^12).

Row | microsomal CLint at 2 μM [1] | IC50 [2] | IC50 [3] | SMILES
1 | 165 µL/min/mg | 1390 nM | 1230 nM | Brc1ncn(-c2csc(N3CCOCC3)n2)c1Br [Example 43, 4-[4-(4,5-dibromoimidazol-1-yl)thiazol-2-yl]morpholine]
2 | 198 µL/min/mg | 458 nM | 496 nM | CSc1nc(Br)cn1-c1csc(N2CCOCC2)n1 [Example 41, 4-[4-(4-bromo-2-methylsulfanyl-imidazol-1-yl)thiazol-2-yl]morpholine]
3 | 177 µL/min/mg | 420 nM | 413 nM | Brc1cn(-c2csc(N3CCOCC3)n2)c(Br)n1 [Example 40, 4-[4-(2,4-dibromoimidazol-1-yl)thiazol-2-yl]morpholine]
4 | 72 µL/min/mg | 659 nM | 750 nM | Cc1nc(Br)cn1-c1csc(N2CCOCC2)n1 [Example 42, 4-[4-(4-bromo-2-methyl-imidazol-1-yl)thiazol-2-yl]morpholine]

Row | SMILES | microsomal CLint at 2 μM [1] | IC50 [2] | IC50 [3]
5 | Brc1ncn(-c2csc(N3[C@@H]4CCC[C@H]3COC4)n2)c1Br [Example 4, (1S,5R)-9-[4-(4,5-dibromoimidazol-1-yl)thiazol-2-yl]-3-oxa-9-azabicyclo[3.3.1]nonane] |  | 6 nM | 196 nM
6 | Brc1ncn(-c2csc(N3[C@@H]4CC[C@H]3COC4)n2)c1Br [Example 7, (1R,5S)-8-[4-(4,5-dibromoimidazol-1-yl)thiazol-2-yl]-3-oxa-8-azabicyclo[3.2.1]octane] |  | 385 nM | 458 nM
7 | Brc1cn(-c2csc(N3[C@@H]4CC[C@H]3COC4)n2)c(Br)n1 [Example 10, (1R,5S)-8-[4-(2,4-dibromoimidazol-1-yl)thiazol-2-yl]-3-oxa-8-azabicyclo[3.2.1]octane] |  | 817 nM | 934 nM
